Assays:
[1] = Plasma pharmacokinetics studies on rats; details: rats
Description: In vivo pharmacokinetics (PK) studies were conducted for selected compounds during the whole optimization at various stages in order to identify structural elements that are favorable for in vivo applications, and/or to evaluate the feasibility of optimized Limk inhibitors for animal studies.

Rev-CEM-GFP-Luc = details: all concentrations tested (up to 200 μM)

SMILES	AUC (iv) ([1]; iv dosing 1 mg/kg)	Cl (iv) ([1]; iv dosing 1 mg/kg)	T1/2 (iv) ([1]; iv dosing 1 mg/kg)	Yd (iv) ([1]; iv dosing 1 mg/kg)	F (%) (po) ([1]; po dosing 2 mg/kg)	Cmax ([1]; read-out: Cmax (iv), iv dosing 1 mg/kg)	cytotoxicity (Rev-CEM-GFP-Luc)
Cc1c[nH]c2ncnc(-c3ccc(NC(=O)N(CCO)c4ccccc4)cc3)c12 [Compound 18b, 1-(2-Hydroxyethyl)-3-(4-(5-methyl-7H-pyrrolo[2,3-d]pyrimidin-4-yl)phenyl)-1-phenylurea]	8.4 µM·h	5.2 mL/min/kg	2.2 h	0.4 L/kg	36%	7.7 µM	
COC(=O)c1ccc2[nH]c(C3CCN(c4ncnc5[nH]cc(Cl)c45)CC3)nc2c1 [Compound R10015, Methyl 2-(1-(5-chloro-7H-pyrrolo[2,3-d]pyrimidin-4-yl)piperidin-4-yl)-1Hbenzo[d]imidazole-5-carboxylate]							no detectable cytotoxicity
